Test results published in PubChem BioAssay (NCI).
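Exposure lasted 48 hours, with cells grown in 96-well plates and compounds tested at five concentrations. The concentration for 50% growth inhibition is given as GI50. TGI is the concentration that stops growth completely.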

Legend:
Test in all cases: inhibition of tumour cell growth, NCI panel, 48 h
HCT-15 colon = test system: HCT-15 colon
MDA-MB-231 breast = test system: MDA-MB-231 breast
SNB-19 CNS = test system: SNB-19 CNS
RXF 393 renal = test system: RXF 393 renal
SW-620 colon = test system: SW-620 colon
NCI-H460 lung = test system: NCI-H460 lung
UACC-257 melanoma = test system: UACC-257 melanoma
DMS 273 small cell lung = test system: DMS 273 small cell lung
M19-MEL melanoma = test system: M19-MEL melanoma
LXFL 529 NSCLC = test system: LXFL 529 NSCLC

SMILES | GI50 (HCT-15 colon) [µM] | TGI (HCT-15 colon) [µM] | GI50 (MDA-MB-231 breast) [µM] | TGI (MDA-MB-231 breast) [µM] | GI50 (SNB-19 CNS) [µM] | TGI (SNB-19 CNS) [µM] | GI50 (RXF 393 renal) [µM] | TGI (RXF 393 renal) [µM] | GI50 (SW-620 colon) [µM] | TGI (SW-620 colon) [µM] | GI50 (NCI-H460 lung) [µM] | TGI (NCI-H460 lung) [µM] | GI50 (UACC-257 melanoma) [µM] | TGI (UACC-257 melanoma) [µM] | TGI (DMS 273 small cell lung) [µM] | TGI (M19-MEL melanoma) [µM] | TGI (LXFL 529 NSCLC) [µM]
Cc1ccccc1/C=C1\CN(C(=O)OC(C)(C)C)C/C(=C\c2ccccc2C)C1=O | 2.1 | 5.76 | 3.49 | 12.6 | 1.81 | 4.38 | 1.66 | 3.21 | 2.99 | 7.07 | 2.12 | 4.27 | 3.12 | 9.92 | – | – | –
CN1CCCN(C(c2ccccc2)c2ccc(Br)cc2)CC1 (stereo not drawn) | 3.49 | 14 | 2.41 | 7.81 | 14.8 | 28 | 2.65 | 8.67 | 2.9 | 10.6 | 6.55 | 19 | 2.41 | 5.41 | – | – | –
O=C1C(N2C(=O)c3ccccc3C2=O)CN1C(COCc1ccccc1)c1ccc(OCc2ccccc2)cc1 (stereo not drawn) | – | > 100 | – | – | – | > 100 | – | > 100 | – | > 100 | – | > 100 | – | > 100 | > 100 | > 100 | > 100
CC1=C(C(=O)Nc2ccccc2C)C(c2ccc(C3C(C(=O)Nc4ccccc4C)=CNC=C3C(=O)Nc3ccccc3C)cc2)C(C(=O)Nc2ccccc2C)=C(C)N1 | – | 41 | – | – | – | 49.1 | – | 85.1 | – | 32.6 | – | 48 | – | 33.2 | 47.3 | > 57.3 | 26.6
CN(C)/C=N/c1nc2ncn(CCOC(=O)c3ccccc3)c2c(=O)[nH]1 | – | > 100 | – | – | – | – | – | > 100 | – | > 100 | – | > 100 | – | > 100 | > 100 | > 100 | > 100
Cc1ccc(S(=O)(=O)n2cc(-c3nnnn3-c3ccc(Cl)cc3)c(=O)c3ccccc32)cc1 | > 100 | > 100 | > 100 | > 100 | > 100 | > 100 | 29.6 | > 100 | > 100 | > 100 | 81.9 | > 100 | > 100 | > 100 | – | – | –
O=C(/C=C/c1cccnc1)c1ccccc1O | 15.6 | 41 | 17.7 | 46.7 | 20.3 | 62.5 | 13.8 | 27.3 | 22.5 | 63.2 | 30.8 | > 100 | 25.4 | 60.3 | – | – | –
CC(O[Si](C)(C)C)C1C=CC(C)n2c(=O)n(-c3ccccc3)c(=O)n21 (stereo not drawn) | – | > 100 | – | – | – | > 100 | – | > 100 | – | – | – | – | – | – | – | > 100 | –
CSc1ccc2c(cc1=O)[C@@H](NC(=O)c1ccc(F)cc1)CCc1cc(O)c(O)c(O)c1-2 | – | > 100 | – | – | – | > 100 | – | > 100 | – | > 100 | – | > 100 | – | > 100 | > 100 | > 100 | > 100
COC(=O)C(Cc1nc2ccccc2[nH]c1=O)C(=O)C(=O)Nc1ccc(OC)cc1[N+](=O)[O-] (stereo not drawn) | – | > 100 | – | – | – | > 100 | – | – | – | > 100 | – | > 100 | – | > 100 | – | > 100 | > 100
CCOC(=O)/C=C/c1ccccn1 | – | > 100 | – | – | – | – | – | – | – | > 100 | – | > 100 | – | > 100 | – | > 100 | > 100
ClC[Si]12OCCN(CCO1)CCO2 | – | – | – | – | – | > 100 | – | > 100 | – | > 100 | – | > 100 | – | > 100 | > 100 | – | > 100
COc1ccc(/C=C/C(=O)c2ccc(Nc3ccnc4cc(Cl)ccc34)cc2)cc1 | > 100 | > 100 | 31.1 | > 100 | > 100 | > 100 | > 100 | > 100 | > 100 | > 100 | > 100 | > 100 | > 100 | > 100 | – | – | –
O=c1/c(=C/c2ccc3c(c2)OCO3)sc2nnc(-c3ccco3)n12 | – | – | – | – | – | > 100 | – | > 100 | – | > 100 | – | > 100 | – | > 100 | > 100 | > 100 | > 100
CC[C@]12CCCN3CC[C@]4(C(=C(C(=O)OC)C1)Nc1ccccc14)[C@@H]32 | 13.7 | 28.5 | 15.5 | 38.1 | 22.9 | 66.2 | 15.5 | 30.4 | 16.2 | 33.3 | 18.1 | 38.3 | 16.7 | 42.2 | – | – | –
COc1cc(NC(N)=NCCC(C)(C)c2ccc(C(F)(F)F)cc2)ncc1C#N | 1.53 | 2.9 | 1.8 | 3.34 | 1.79 | 3.44 | 1.79 | 3.24 | 2.01 | 4.14 | 1.83 | 3.55 | 1.77 | 3.32 | – | – | –
N#CC1=C(c2ccccc2)C(O)(c2ccccc2)NC1=O (stereo not drawn) | – | > 100 | – | – | – | – | – | > 100 | – | > 100 | – | > 100 | – | > 100 | > 100 | > 100 | > 100
Oc1cc2c(cc1O)-c1[nH]ncc1CC2 | – | > 100 | – | – | – | > 100 | – | – | – | > 100 | – | > 100 | – | > 100 | > 100 | > 100 | > 100
Cc1cc2c(cc1C)[n+](=O)c(C(=O)/C=C/c1ccccc1Cl)c(C)n2[O-] | – | 75.3 | – | – | – | > 100 | – | – | – | > 100 | – | 63.7 | – | 57.5 | > 100 | > 100 | 34.6
COc1ccc(Cn2c(Br)c3c(c2-c2cc(OC)c(OC)c(OC)c2)CCc2sc(NC(C)=O)nc2-3)cc1 | 3.12 | 32.2 | 3.22 | 43.6 | > 100 | > 100 | 2.24 | 10.7 | 3.63 | > 100 | 3.05 | > 100 | 98.5 | > 100 | – | – | –
